Reference: patent US5698538A, “Boronic acid and ester inhibitors of thrombin” (The DuPont Merck Pharmaceutical Company, priority 1996, dated 1997)
Counter-ions that a name gives are not always drawn. Like-named read-outs stand apart in the source and are kept apart here.

Legend:
Assay type in all cases: biochemical
human factor VIIa = target: T1, human factor VIIa (Homo sapiens, UniProt P08709); assay: Inhibition of human factor VIIa (chromogenic substrate S2288), inhibitory constant Ki
T1 construct: Factor VIIa in the extrinsic pathway; purchased BiosPacific, Emeryville, Calif
T1 sequence (P08709 213-466 limits assumed): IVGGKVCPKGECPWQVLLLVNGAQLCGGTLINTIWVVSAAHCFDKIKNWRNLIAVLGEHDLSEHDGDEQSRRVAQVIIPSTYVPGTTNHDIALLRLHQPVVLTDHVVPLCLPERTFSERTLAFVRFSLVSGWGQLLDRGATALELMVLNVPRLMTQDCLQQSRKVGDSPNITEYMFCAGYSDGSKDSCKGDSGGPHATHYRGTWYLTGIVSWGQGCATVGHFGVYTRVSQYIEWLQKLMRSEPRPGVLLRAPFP
T1 sequence (P08709 61-212 partner limits assumed): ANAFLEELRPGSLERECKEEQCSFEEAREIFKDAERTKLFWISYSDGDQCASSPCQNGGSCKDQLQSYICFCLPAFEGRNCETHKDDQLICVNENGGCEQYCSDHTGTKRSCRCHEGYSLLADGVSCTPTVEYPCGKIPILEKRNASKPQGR
Description: (§1) The effectiveness of compounds of the present invention as inhibitors of blood coagulation proteases was determined using purified human proteases and synthetic substrates following procedures similar to those described in Kettner et al. (1990).
(§2) For these assays, the rate of enzymatic (thrombin, Factor Xa, and Factor VIIa) hydrolysis of chromogenic substrates (S2238 (H-D-Phe-Pip-Arg-pNA), S2222, and S2288, respectively; Kabi Pharmacia, Franklin, Ohio.) was measured both in the absence and presence of compounds of the present invention. […] A decrease in the rate of absorbance change at 405 nm in the presence of inhibitor is indicative of enzyme inhibition. The results of this assay are expressed as inhibitory constant, Ki.
(§3) Thrombin and Xa determinations were made in 0.10M sodium phosphate buffer, pH 7.5, containing 0.20M NaCl, and 0.5% PEG 8000. VIIa determinations were made in 0.05M tris buffer, pH 7.6, containing 0.10M NaCl, 4 mM CaCl2, and 0.1% bovine serum albumin. The Michaelis constant, Km, for substrate hydrolysis was determined at 5° C. using the method of Lineweaver and Burk.
(§4) Values of Ki were determined by allowing 0.2-0.5 nM human thrombin or human factor Xa (Enzyme Research Laboratories, South Bend, Ind.), or 50 nM human factor VIIa (BiosPacific, Emeryville, Calif.) react with the substrate (0.20 mM-1 mM) in the presence of inhibitor. Reactions were allowed to go for 30 minutes and the velocities (rate of absorbance change vs time) were measured in the time frame of 25-30 minutes. The following relationship was used to calculate Ki values. [formula] where: vo is the velocity of the control in the absence of inhibitor;
(§5) vs is the velocity in the presence of inhibitor;
(§6) I is the concentration of inhibitor;
(§7) Ki is the dissociation constant of the enzyme: inhibitor complex;
(§8) S is the concentration of substrate;
(§9) Km is the Michaelis constant.

human factor Xa = target: T2, human factor Xa (Homo sapiens, UniProt P00742); assay: Inhibition of human factor Xa (chromogenic substrate S2222), inhibitory constant Ki; settings: S2222, pH 7.5, 30 minutes, read-out: Ki values for inhibition of Serine Proteases: Factor Xa
T2 construct: purchased Enzyme Research Laboratories, South Bend, Ind
T2 sequence (P00742 235-488 limits assumed): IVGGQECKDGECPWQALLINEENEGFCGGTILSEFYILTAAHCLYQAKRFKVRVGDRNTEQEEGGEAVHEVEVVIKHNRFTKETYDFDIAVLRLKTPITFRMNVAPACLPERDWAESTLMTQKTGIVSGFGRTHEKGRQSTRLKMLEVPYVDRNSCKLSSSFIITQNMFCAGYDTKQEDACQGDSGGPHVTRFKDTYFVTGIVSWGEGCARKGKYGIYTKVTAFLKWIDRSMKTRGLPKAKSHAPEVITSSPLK
T2 sequence (P00742 41-179 partner limits assumed): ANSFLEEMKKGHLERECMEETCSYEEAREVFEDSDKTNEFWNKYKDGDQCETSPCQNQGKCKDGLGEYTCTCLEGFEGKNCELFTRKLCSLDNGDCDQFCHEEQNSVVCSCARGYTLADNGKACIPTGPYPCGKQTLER
Description: as §1, §2, §3, §4, §5, §6, §7, §8, §9

human thrombin = target: T3, human thrombin (Homo sapiens, UniProt P00734); assay: Inhibition of human thrombin (chromogenic substrate S2238), inhibitory constant Ki; settings: 0.2-0.5 nM human thrombin, S2238, pH 7.5, 30 minutes; read-out: Ki values for inhibition of Serine Proteases: Thrombin
T3 construct: purchased Enzyme Research Laboratories, South Bend, Ind
Description: as §1, §2, §3, §4, §5, §6, §7, §8, §9

[1] = 50 nM human factor VIIa, S2288, pH 7.6, 4 mM CaCl2, 30 minutes, read-out: Ki values for inhibition of Serine Proteases: Factor VIIa

Ki (human factor VIIa) | Ki (human factor Xa) | Ki (human thrombin) | Ki (human factor VIIa; [1]) | Structure (SMILES)
500 to 50000 nM | 500 to 50000 nM | < 500 nM |  | CC1(C)[C@@H]2C[C@H]3OB([C@H](CCCCN)NC(=O)Cn4nc(Cc5ccccc5)nc4Cc4ccccc4)O[C@@]3(C)[C@H]1C2 [Example 921]
 | < 500 nM | < 500 nM | < 500 nM | CC(C)(C)NS(=O)(=O)c1ccccc1-c1ccc(C(=O)N[C@@H](CCCNC(=N)N)B(O)O)cc1 [Example 263]
 |  | < 500 nM |  | CC1(C)C2CC3OB([C@H](CCCCN)NC(=O)Cn4cnc(Cc5ccccc5)n4)OC3(C)C1C2 (single isomer, unassigned) [Example 2411]
 | 500 to 50000 nM | < 500 nM | 500 to 50000 nM | COC(=O)Cc1nc(Cc2ccccc2)n(CC(=O)N[C@@H](CCCCN)B2O[C@@H]3C[C@@H]4C[C@@H](C4(C)C)[C@]3(C)O2)n1 [Example 917]
 | 500 to 50000 nM | < 500 nM | 500 to 50000 nM | Cc1nc(Cc2ccccc2)nn1CC(=O)N[C@@H](CCCCN)B1OC2CC3CC(C3(C)C)C2(C)O1 (single isomer, unassigned) [Example 2412]
 | 500 to 50000 nM | < 500 nM | 500 to 50000 nM | CCCc1nc(Cc2ccccc2)nn1CC(=O)N[C@@H](CCCCN)B1OC2CC3CC(C3(C)C)C2(C)O1 (single isomer, unassigned) [Example 2414]
500 to 50000 nM | 500 to 50000 nM | < 500 nM |  | CC1(C)[C@@H]2C[C@H]3OB([C@H](CCCCN)NC(=O)Cn4nc(-c5cccc(N)c5)nc4Cc4ccccc4)O[C@@]3(C)[C@H]1C2 [Example 931]
 | < 500 nM | < 500 nM | < 500 nM | CC1(C)[C@@H]2C[C@H]3OB([C@H](CCCNC(=N)N)NC(=O)c4ccc(-c5ccccc5)cc4F)O[C@@]3(C)[C@H]1C2 [Example 199]
 | < 500 nM | < 500 nM | < 500 nM | CC(C)(C)NS(=O)(=O)c1ccccc1-c1ccc(C(=O)N[C@@H](CCCNC(=N)N)B2O[C@@H]3C[C@@H]4C[C@@H](C4(C)C)[C@]3(C)O2)cc1 [Example 261]
500 to 50000 nM | 500 to 50000 nM | < 500 nM |  | CC1(C)[C@@H]2C[C@H]3OB([C@H](CCCCN)NC(=O)Cn4nc(CC#N)nc4Cc4ccccc4)O[C@@]3(C)[C@H]1C2 [Example 898, R-N^1-(3-Cyanomethyl-5-phenylmethyl-1,2,4-triazol-1-yl)acetyl-borolysine, (+)-pinanediol ester, hydrochloride]
 |  | < 500 nM |  | NCCCC[C@H](NC(=O)Cn1ncnc1CCc1ccccc1)B(O)O [Example 1521]
 | < 500 nM | < 500 nM |  | CC(C)(C)OC(=O)Nc1cccc(-c2ccc(C(=O)N[C@@H](CCCNC(=N)N)B3OC4CC5CC(C5(C)C)C4(C)O3)s2)c1 (single isomer, unassigned) [Example 5426]
 | > 500000 nM | < 500 nM | 500 to 50000 nM | CC1(C)[C@@H]2C[C@H]3OB([C@H](CCCCN)NC(=O)Cn4nc(CO)nc4Cc4ccccc4)O[C@@]3(C)[C@H]1C2 [Example 913]
 | 500 to 50000 nM | < 50000 nM | 500 to 50000 nM | CC1(C)[C@@H]2C[C@H]3OB([C@H](CCCCN)NC(=O)c4ccc(-c5ccccc5)nc4)O[C@@]3(C)[C@H]1C2 [Example 468]
 | < 500 nM | < 500 nM | 500 to 50000 nM | COC(=O)NS(=O)(=O)c1ccccc1-c1ccc(C(=O)N[C@@H](CCCNC(=N)N)B2O[C@@H]3C[C@@H]4C[C@@H](C4(C)C)[C@]3(C)O2)c(C)c1 [Example 231]
 | 500 to 50000 nM | < 500 nM |  | CC1(C)[C@@H]2C[C@H]3OB([C@H](CCCNC(=N)N)NC(=O)c4ccc(-c5ccccc5)cc4)O[C@@]3(C)[C@H]1C2 [Example 1, N^1-(4-Phenylbenzoyl)boroarginine (+)-Pinanediol, Bisulfite]
 | 500 to 50000 nM | < 500 nM | < 500 nM | CC1(C)C2CC3OB([C@H](CCCCN)NC(=O)Cn4nc(CCc5ccccc5)nc4CO)OC3(C)C1C2 (single isomer, unassigned) [Example 2780]
 | < 500 nM | < 500 nM | 500 to 50000 nM | Cc1cc(-c2cccc(NC(=O)OC(C)(C)C)c2)ccc1C(=O)N[C@@H](CCCNC(=N)N)B1O[C@@H]2C[C@@H]3C[C@@H](C3(C)C)[C@]2(C)O1 [Example 283]
 |  | < 500 nM |  | CC1(C)C2CC3OB([C@H](CCCCN)NC(=O)Cn4ncnc4CCc4ccccc4)OC3(C)C1C2 (single isomer, unassigned) [Example 1431]

Ki (human factor VIIa) | Ki (human factor Xa) | Ki (human thrombin) | Ki (human factor VIIa; [1]) | Structure (SMILES)
 | 500 to 50000 nM | < 500 nM | 500 to 50000 nM | CC1(C)C2CC3OB([C@H](CCCCN)NC(=O)Cn4nc(CCc5ccccc5)nc4COCc4ccccc4)OC3(C)C1C2 (single isomer, unassigned) [Example 2781]
 | 500 to 50000 nM | < 500 nM | 500 to 50000 nM | CSCc1nc(Cc2ccccc2)nn1CC(=O)N[C@@H](CCCCN)B1OC2CC3CC(C3(C)C)C2(C)O1 (single isomer, unassigned) [Example 2416]
 |  | < 50000 nM |  | NCCCC[C@H](NC(=O)Cn1cnc(CCc2ccccc2)n1)B(O)O [Example 2837]
 |  | < 500 nM | 500 to 50000 nM | CC1(C)C2CC3OB([C@H](CCCCN)NC(=O)Cn4nc(CCc5ccccc5)nc4CCc4ccccc4)OC3(C)C1C2 (single isomer, unassigned) [Example 1467]
 | 500 to 50000 nM | < 500 nM |  | COCCC[C@H](NC(=O)Cn1nc(CC#N)nc1Cc1ccccc1)B1OC2CC3CC(C3(C)C)C2(C)O1 (single isomer, unassigned) [Example 1352]
 |  | < 500 nM | 500 to 50000 nM | NCCCC[C@H](NC(=O)Cn1nc(CCc2ccccc2)nc1CCc1ccccc1)B(O)O [Example 1557]
 | 500 to 50000 nM | < 50000 nM |  | CC1(C)[C@@H]2C[C@H]3OB([C@H](CCCCN)NC(=O)c4ccc(-c5ccccc5)nc4)O[C@@]3(C)[C@H]1C2 [Example 4064]
 |  | < 500 nM |  | Cc1cc(-c2ccccc2)ccc1C(=O)N[C@@H](CCCNC(=N)N)B1O[C@@H]2C[C@@H]3C[C@@H](C3(C)C)[C@]2(C)O1 [Example 29]
 |  | < 500 nM |  | CC1(C)[C@@H]2C[C@H]3OB([C@H](CCCCN)NC(=O)Cn4nc(-c5ccccc5)nc4Cc4ccccc4)O[C@@]3(C)[C@H]1C2 [Example 920]
 |  | < 500 nM |  | NCCCC[C@H](NC(=O)Cn1ncnc1Cc1ccccc1)B(O)O [Example 977]
 |  | < 500 nM |  | CC1(C)C2CC3OB([C@H](CCCCN)NC(=O)Cn4nc(Cc5nn[nH]n5)nc4Cc4ccccc4)OC3(C)C1C2 (single isomer, unassigned) [Example 2067]
 | 500 to 50000 nM | < 500 nM |  | CC1(C)C2CC3OB([C@H](CCCCN)NC(=O)Cc4nc(Cc5ccccc5)n(Cc5ccccc5)n4)OC3(C)C1C2 (single isomer, unassigned) [Example 3349]
 |  | < 500 nM |  | CC1(C)C2CC3OB([C@H](CCCCN)NC(=O)Cn4cnc(CCc5ccccc5)n4)OC3(C)C1C2 (single isomer, unassigned) [Example 2752]
 | 500 to 50000 nM | < 50000 nM |  | NCCCC[C@H](NC(=O)c1ccc(-c2ccccc2)nc1)B(O)O [Example 4065]
 |  | < 500 nM | < 500 nM | CC(C)(C)NS(=O)(=O)c1ccccc1-c1ccc(C(=O)N[C@@H](CCCNC(=N)N)B2O[C@@H]3C[C@@H]4C[C@@H](C4(C)C)[C@]3(C)O2)c([N+](=O)[O-])c1 [Example 288]
 |  | < 500 nM |  | CC1(C)[C@@H]2C[C@H]3OB([C@H](CCCCN)NC(=O)Cn4ncnc4Cc4ccccc4)O[C@@]3(C)[C@H]1C2 [Example 887]
 | < 500 nM | < 500 nM |  | Cc1cc(-c2ccccc2)ccc1C(=O)N[C@@H](CCCNC(=N)N)B(O)O [Example 129]
 | < 500 nM | < 500 nM |  | CC(C)(C)OC(=O)Nc1cccc(-c2ccc(C(=O)N[C@@H](CCCNC(=N)N)B3OC4CC5CC(C5(C)C)C4(C)O3)o2)c1 (single isomer, unassigned) [Example 5529]
